Laboratory results: US7968558B2, “Amidine derivatives of 2-heteroaryl-quinazolines and quinolines; potent analgesics and anti-inflammatory agents” (Rottapharm S.p.A., priority 2006, dated 2011)

Assays:
[1] = test system: mechanical hyperalgesia associated with STZ-induced diabetes; assay: STZ-induced diabetes mechanical hyperalgesia (neuropathic pain); type: in vivo, rat
Procedure: Streptozotocin (STZ)-induced diabetes in the rat has been increasingly used as a model of painful diabetic neuropathy to assess the efficacies of potential analgesic agents (C. Courteix, Pain 1993, 53, 81-8). The compounds of the invention were tested for efficacy in reducing mechanical hyperalgesia associated with STZ-induced diabetes in the rat, according to the experimental model as described by the literature. Diabetes was produced with the injection of a single dose (75 mg/Kg i.p.) of STZ. In the following four weeks after the induction of diabetes the clinical symptoms (weight, body and skin temperature, motility and hyperglycemia) progressively developed by the animals, are strictly monitored. After four weeks, the scores obtained in diabetic rats to various pain stimuli (in particular mechanical stimuli) were grater than those in normal rats, indicating hyperalgesia. The hyperalgesia induced by diabetes was evaluated using the Randall-Selitto method as above described, and quantitated using the analgesimeter. Also in this case, the difference in the mechanical pain threshold between the basal value (generally 230-250 g) and the one tolerated by the animals treated with the drug, is defined as mechanical hyperalgesia. The compounds of the invention were administered i.p. (solution, Tween 80, 10% in saline) at different doses, and mechanical hyperalgesia was measured at the reported time, as maximum percent effect (MPE) which represents the difference (%) in pain threshold between the animals treated with the drug and the controls that received only the vehicle, compared with the weight borne by naïf non-diabetic controls. A 100% protection means that the diabetic animals treated with the compound can tolerate the same stimulus (weight) as the naïf non-diabetic animals. MPE higher than 100% means that the diabetic animal treated with the compound can tolerate stimuli (weight) higher than the control non-diabetic animals (hypoalgesia).

[2] = test system: COX-2 expression; assay: IL-1β induced COX-2 expression in SW1353 human chondrosarcoma cell line; type: cell-based; conditions: Homo sapiens, SW1353, read-out: Inhibition of COX-2 expression in SW1353 human chondrosarcoma cell line, IC50
Source text: Conversely, compounds of the invention are able to inhibit, at micromolar concentration, IL-1β induced PGE2 production in cellular systems. This inhibition effect on the production of the pro-inflammatory mediator PGE2, instead of to be ascribed to a direct COX-2 inhibition, as happens with Celecoxib and other COX-2 inhibitors, is in this case due to inhibition of cytokine induced COX-2 expression as proven in cellular systems.
Effectiveness in inhibition of PGE2 production induced by IL-1β in chondrocyte cell culture, as well as inhibition in IL-1β induced COX-2 expression in SW1353 human chondrosarcoma cell line, is summarized in Table 2, for representative compounds of the invention.

[3] = test system: Zymosan induced paw volume increase; assay: Zymosan-induced paw oedema; type: in vivo, rat; conditions: oral
Procedure: The interplantar injection of Zymosan-induced mechanical hyperalgesia was used as a model of inflammatory pain (Meller, Neuropharmacology, 1994, 33, 1471-1478). In this model, typically a male Sprague-Dawley or Wistar rat (200-250 g) receives an interplantar injection of 3 mg/100 μl zymosan into one hind paw. A marked inflammation occurs in this hind paw. Drugs are administered orally for evaluation of efficacy, 30 min. before the inflammatory insult. The hyperalgesia induced by zymosan administration was evaluated using the Randall-Selitto method (Arch. Int. Pharmacodyn., 1957, 111, 409). The quantitation of the analgesic effect is achieved by an analgesimeter, which consist in applying to the inflamed paw an increasing weight (from 130-140 g up to 500 g). The difference in the mechanical pain threshold between the basal value (generally 230-250 g) and the one tolerated by the animals treated with the drug, determined 4 hours after the inflammatory challenge, is defined as mechanical hyperalgesia.
Mechanical hyperalgesia is expressed for the compounds of the invention as ED50, which is the dose of the administered compound able to increase the pain threshold by 50% in comparison with the group of control animals. The corresponding ED100, representing the dose able of reducing of 100% the pain threshold, can be calculated for those cases where there is a linear dose-response relationship. In vivo anti-inflammatory effect exerted by the compound of the invention can be assessed in the same Zymosan induced inflammation test described above, by measuring the volume of the oedema induced by the inflammatory agent. The oedema was evaluated as the increase in the volume of the Zymosan injected paw within a time of 0-2 hrs. The measurements of the variation of the oedema volume of the paw were recorded using hydroplethysmometer, which consists of two plastic cuvettes containing a surfactant liquid, the larger one being used for immersion of the paw, connected to the smaller one which contains a trans-ducer capable of recording small displacements of the volume used for the measure. The paw is immersed in the cuvettes up to the tibiotarsal joint. The volume of the liquid displaced is proportional to the extent of the inflammation. The efficacy of the compounds of the invention in preventing oedema formation is expressed as ED30, and is measured 2 hours after the inflammatory challenge, and represents the dose able of reducing of 30%, the Zymosan induced paw volume increase in comparison to control animals (animals treated with Zymosan but treated with only distilled water instead of the testing compound). The corresponding ED50, representing the dose able of reducing of 50% the zymosan induced paw volume increase, can be calculated for those cases where there is a linear dose-response relationship.
In both the experiments, for each test compound, at least three doses were used, with 10 animals per group. Compounds of the invention were tested at 10, 20 and 40 mg/Kg.

[4] = test system: IL-1 production; assay: IL-1 production in IL-1 stimulated human chondrosarcoma cell line; type: cell-based; conditions: Compound concentration is 10 μM
Source text: The compounds of the invention have been found effective in interfering with cytokine production in several cell lines, representative examples of this effect are reported in Table 3, for two representative cytokines, in IL-1 stimulated human chondrosarcoma cell line.

IC50 [2]: 4.6 µM
SMILES: CC(=N)Nc1ccc2nc(-c3ccc4c(c3)OCO4)ncc2c1 [Example 1, N-[2-(1,3-benzodioxol-5-yl)quinazolin-6-yl]acetamidine]
MPE 0.5 hrs. ([1]; 3 mg/Kg i.p.): 15%
MPE 1.5 hrs. ([1]; 3 mg/Kg i.p.): 30%
MPE 3 hrs. ([1]; 3 mg/Kg i.p.): 45%
MPE 0.5 hrs. ([1]; 10 mg/Kg i.p.): 59%
MPE 1.5 hrs. ([1]; 10 mg/Kg i.p.): 34%
MPE 3 hrs. ([1]; 10 mg/Kg i.p.): 46%
MPE 0.5 hrs. ([1]; 30 mg/Kg i.p.): 110%
MPE 1.5 hrs. ([1]; 30 mg/Kg i.p.): 137%
MPE 3 hrs. ([1]; 30 mg/Kg i.p.): 101%
ED50 ([3]; Rattus norvegicus, calculated from linear dose-response, read-out: Oedema Reduction ED50): 23.1 mg/kg
Oedema Reduction ED30 ([3]; 2 hours after challenge): 12.2 mg/kg
Inhibition (%) of IL-1 production [4]: 50%
